We go through three compounds from PMC9078697, “Discovery and preliminary SAR of 14-aryloxy-andrographolide derivatives as antibacterial agents with immunosuppressant activity” (RSC Advances, 2018).

Read-outs that look alike come from different tables or passages of the source.

Data set [1] deals with TNF-α/NF-κB signaling pathway. Set-up: method as in PMID 28680097. Conditions: AD-293 reporter cells; treated for 4 h; cited from earlier work.
Data set [2] has as its system S. aureus. Kind of data set: Bacteriostatic screening (growth, OD630) against S. aureus. Type of data set: cell-based. The note with it: at 250 μM of the tested compound. An outline of the steps: (§1)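 Overnight (12 h, 37 °C) LB cultures of ATCC strains were diluted 1000-fold and exposed to graded compound concentrations at 1% final DMSO, following a modified NCCLS protocol. Ciprofloxacin was the reference; runs were in triplicate, with cell-free blanks. Growth was read as OD630.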

For data set [3], the system named is TLR4/NF-κB signaling pathway. More on the design: method as in PMID 28680097. Conditions: AD-293 reporter cells; treated for 16 h; cited from earlier work.
Data set [4] has as its system IL-6/STAT3 signaling pathway. More on the design: method as in PMID 28680097. Conditions: AD-293 reporter cells; treated for 16 h; cited from earlier work.
For data set [5], the system named is E. faecalis. Briefly: Bacteriostatic screening (growth, OD630) against E. faecalis. In kind it is cell-based. Conditions: 24 h, IC50 generated when inhibition at 250 μM was higher than 80%. An outline of the steps:
as §1

Data set [6] concerns AD-293 cells. Set-up: method as in PMID 28680097. The note with it: treated for 24 h; cited from earlier work.
Data set [7] deals with IL-6/STAT3 signaling pathway. Briefly: IL-6/STAT3 luciferase reporter assay in AD-293 cells. Type of data set: cell-based. Conditions: AD-293 reporter cells; 2.5 μg mL−1 IL-6; treated for 16 h. From the text:
(§2) We utilized luciferase reporters bearing the promoter regions of TNF-α/NF-κB, TLR4/NF-κB, and IL-6/STAT3 ([ref. 25]) to examine the activities of the antibacterial active andrographolide analogs in the regulation of signaling pathways that govern inflammatory response (Table 2). […] Like their similarity in inhibitory activity against E. faecalis, E. coli and S. aureus (Table 1), 3-keto-19-alcohol compound 9b1 suppresses three signaling pathways in the same fashion as 6b17 (Table 2). […] Cells from the AD-293 cell line, a derivative of the HEK293 cell line with improved adherence and plaque formation properties, were purchased from Stratagene (La Jolla, CA, USA). The protocols were adopted and modified from our previous report.[25] All compounds were dissolved in DMSO at 10 mM as a stock solution. The final concentration of DMSO was 0.1% in the culture medium. AD-293 cells bearing luciferase reporters with promoter regions of IL-6/STAT3 and TNF-α/NF-κB in pGL4.20 vector (Promega) were maintained in DMEM high glucose medium supplemented with 10% FBS and 1% penicillin streptomycin in the presence of 1 μg mL^−1 puromycin. AD-293 cells overexpressing TLR4 and stably transfected with NF-κB reporter were maintained in DMEM high glucose medium in the presence of 1 μg mL^−1 puromycin and 10 μg mL^−1 blasticidin. All cells were maintained in a humidified incubator at 37 °C in 95% air and 5% CO2. Reporter cells were treated with 50 ng mL^−1 TNF-α to stimulate the NF-κB signaling pathway, 1 μg mL^−1 LPS to stimulate the TLR4/NF-κB signaling pathway, and 2.5 μg mL^−1 IL-6 to stimulate the IL-6/STAT3 signaling pathway. The medium was removed at the end of the treatment, cell extracts were prepared, and the luciferase activity was measured using a Luciferase assay kit (Promega) according to the manufacturer's instructions. EC50 was defined as the concentration of drug that inhibited stimulator-triggered luciferase reporter activation by 50% after continuous drug exposure for 4 (TNF-α/NF-κB) or 16 (IL-6/STAT3 and TLR4/NF-κB) hours. Each concentration was repeated 3 times independently.
Background: In a reporter assay the amount or activity of a reporter protein is the signal.

In data set [8] the test system is TLR4/NF-κB signaling pathway. Briefly: TLR4/NF-κB luciferase reporter assay in AD-293 cells. In kind it is cell-based. Conditions: AD-293 reporter cells; 1 μg mL−1 LPS; treated for 16 h.
Source text: as §2

The test system of data set [9] is TNF-α/NF-κB signaling pathway. Kind of data set: TNF-α/NF-κB luciferase reporter assay in AD-293 cells. In kind it is cell-based. The note with it: AD-293 reporter cells; 50 ng mL−1 TNF-α; treated for 4 h.
Source text: as §2

Data set [10] concerns E. coli. Kind of data set: Bacteriostatic screening (growth, OD630) against E. coli. Type of data set: cell-based. Conditions: at 250 μM of the tested compound. An outline of the steps:
as §1

The subject of data set [11] is AD-293 cells. Kind of data set: Cytotoxicity (MTT) in AD-293 cells. Type of data set: cell-based. The note with it: treated for 24 h.

As a reminder, the EC50 is the concentration that produces a half-maximal response. In general, IC50 refers to the concentration that inhibits the measured activity by half. Lower therefore signals higher potency. One may read the CC50 as the concentration at which the toxic effect on the cells reaches its halfway point. On to `C=C1CCC2C(C)(CO)C(O)CCC2(C)C1CC=C1C(=O)OCC1Oc1ccc([N+](=O)[O-])cc1OC` (stereo not drawn) [6b3, (14β)-(2′-Methoxy-4′-nitro)phenoxy-andrographolide], for which the EC50 in data set [1] is 8.97 ± 1.03 µM; in [3], 3.49 ± 0.34 µM; in data set [4], above 10 µM. Also, the “inhibition rate (%) SA” value in data set [2] (250 µM) was “(44) %”. The IC50 in [5] was found to be 140 ± 11.9 µM. Besides, the CC50 in data set [6] is above 10 µM.
In the case of “(14α)-(Quinolyl-8′-oxy)-3,19-acetonylidene andrographolide [5a17]”, the “inhibition rate (%) SA” value in data set [2] is on record as “(35) %”. Further, the figures for the EC50 in [7], in data set [8] and in [9] were 4.71 ± 0.17 µM, above 10 µM and above 10 µM, respectively. Besides, the IC50 in [5] came out at 10.4 ± 2.5 µM. The “inhibition rate (%) EC” value in data set [10] was “(44) %”. Further, the CC50 in [11] was above 10 µM.
With `C=C1CCC2C(C)(CO)C(O)CCC2(C)C1CC=C1C(=O)OCC1Oc1cccc2cccnc12` (stereo not drawn) [6a17, (14α)-(Quinolyl-8′-oxy)andrographolide], in data set [2], the “inhibition rate (%) SA” value was “(66) %”. Further, the EC50 was 5.62 ± 0.13 µM in [7], above 10 µM in data set [8] and above 10 µM in [9]. For the same compound, in data set [5], the IC50 turned out to be 16.3 ± 2.1 µM. The “inhibition rate (%) EC” value in data set [10] was “(70) %”. In data set [11], this compound returned a CC50 above 10 µM.
